Reference: patent US8258134B2, “Pyridazinone glucokinase activators” (Hoffmann-La Roche Inc., priority 2008, dated 2012)

Molecular target: T1, Recombinant human liver GK1 (GST-GK) (Homo sapiens, UniProt P35557)
T1 construct: made in house; host or cells: E. coli
T1 sequence (P35557 1-466 isoform P35557-2): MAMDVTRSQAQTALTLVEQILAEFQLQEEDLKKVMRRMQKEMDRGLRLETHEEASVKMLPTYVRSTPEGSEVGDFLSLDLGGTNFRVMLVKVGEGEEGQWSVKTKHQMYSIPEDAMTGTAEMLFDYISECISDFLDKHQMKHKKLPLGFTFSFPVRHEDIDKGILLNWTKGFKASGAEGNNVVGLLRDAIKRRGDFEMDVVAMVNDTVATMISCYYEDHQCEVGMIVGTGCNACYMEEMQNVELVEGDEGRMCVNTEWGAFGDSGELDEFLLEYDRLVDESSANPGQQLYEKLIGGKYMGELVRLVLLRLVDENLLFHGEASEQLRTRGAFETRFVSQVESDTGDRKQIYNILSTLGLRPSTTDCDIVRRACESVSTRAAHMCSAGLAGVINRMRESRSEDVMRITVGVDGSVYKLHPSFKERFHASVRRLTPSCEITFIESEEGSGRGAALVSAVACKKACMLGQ
Test: Glucokinase in vitro assay (G6PDH-coupled NADH generation, OD340)
Assay type: biochemical
Conditions: 30 uM test compound, 5 mM D-glucose
Procedure, shortened: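 GST-tagged recombinant GK1 expressed in E. coli, run at 30° C, pH 7.1 Hepes with 5 mM D-glucose, 1 mM ATP and 1.8 mM NAD, G6PDH-coupled. Compounds were in 10% DMSO final, with a 10 min pre-incubation before enzyme addition. OD340/min rate measured; SC1.5 is the activator concentration giving a 50% increase in activity.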

With `CC(C)CC(C(=O)Nc1ccn(C[C@@H](O)CO)n1)n1ncc(Nc2ccccc2Cl)cc1=O` (stereo partly drawn) [Example 122, 2-[4-(2-Chloro-phenylamino)-6-oxo-6H-pyridazin-1-yl]-4-methyl-pentanoic acid [1-((R)-2,3-dihydroxy-propyl)-1H-pyrazol-3-yl]-amide] the “fold activation @ 30 uM” value was 1.36 fold.

Same assay, conditions: 5 mM D-glucose, 30° C., pH 7.1, 10% DMSO

Compared with `Cn1nc(C(F)(F)F)cc1Oc1cnn(C(CC2CCCC2)C(=O)Nc2ccn(C[C@@H](O)CO)n2)c(=O)c1` (stereo partly drawn) [Example 103, 3-Cyclopentyl-N-[1-((R)-2,3-dihydroxy-propyl)-1H-pyrazol-3-yl]-2-[4-(2-methyl-5-trifluoromethyl-2H-pyrazol-3-yloxy)-6-oxo-6H-pyridazin-1-yl]-propionamide], `O=C(Nc1ccn(C[C@@H](O)CO)n1)C(CC1CCCC1)n1ncc(Oc2nccc(C(F)(F)F)n2)cc1=O` (stereo partly drawn) [Example 115, 3-Cyclopentyl-N-[1-((R)-2,3-dihydroxy-propyl)-1H-pyrazol-3-yl]-2-[6-oxo-4-(4-trifluoromethyl-pyrimidin-2-yloxy)-6H-pyridazin-1-yl]-propionamide] is 6.9-fold lower in “SC1.5 average (concentration of activator that produced a 50% increase in the activity of GK)” value: 2.591 µM for the first, 0.376 µM for the second.

Compared with `O=C(Nc1ccn(C[C@@H](O)CO)n1)C(CC1CCCC1)n1ncc(Oc2cccc(Cl)c2F)cc1=O` (stereo partly drawn) [Example 104, 2-[4-(3-Chloro-2-fluoro-phenoxy)-6-oxo-6H-pyridazin-1-yl]-3-cyclopentyl-N-[1-((R)-2,3-dihydroxy-propyl)-1H-pyrazol-3-yl]-propionamide], `O=C(Nc1ccn(C[C@@H](O)CO)n1)C(CC1CCCC1)n1ncc(Oc2c(F)cccc2F)cc1=O` (stereo partly drawn) [Example 105, 3-Cyclopentyl-2-[4-(2,6-difluoro-phenoxy)-6-oxo-6H-pyridazin-1-yl]-N-[1-((R)-2,3-dihydroxy-propyl)-1H-pyrazol-3-yl]-propionamide] is 1.9-fold lower in “SC1.5 average (concentration of activator that produced a 50% increase in the activity of GK)” value: 0.139 µM for the first, 0.072 µM for the second.

Going from `Cc1ccc(F)c(Oc2cnn(C(CC3CCCC3)C(=O)Nc3ccn(C[C@@H](O)CO)n3)c(=O)c2)c1F` (stereo partly drawn) [Example 107, 3-Cyclopentyl-2-[4-(2,6-difluoro-3-methyl-phenoxy)-6-oxo-6H-pyridazin-1-yl]-N-[1-((R)-2,3-dihydroxy-propyl)-1H-pyrazol-3-yl]-propionamide] to `CCOc1ccc(F)c(Oc2cnn(C(CC3CCOCC3)C(=O)Nc3ccn(C[C@@H](O)CO)n3)c(=O)c2)c1F` (stereo partly drawn) [Example 121, N-[1-((R)-2,3-Dihydroxy-propyl)-1H-pyrazol-3-yl]-2-[4-(3-ethoxy-2,6-difluoro-phenoxy)-6-oxo-6H-pyridazin-1-yl]-3-(tetrahydro-pyran-4-yl)-propionamide], the “SC1.5 average (concentration of activator that produced a 50% increase in the activity of GK)” value rises from 0.042 µM to 0.088 µM (2.1-fold).

First: O=C(Nc1ccn(C[C@@H](O)CO)n1)C(Cc1c(F)cccc1F)n1ncc(Oc2c(F)cccc2F)cc1=O (stereo partly drawn) [Example 108, 2-[4-(2,6-Difluoro-phenoxy)-6-oxo-6H-pyridazin-1-yl]-3-(2,6-difluoro-phenyl)-N-[1-((R)-2,3-dihydroxy-propyl)-1H-pyrazol-3-yl]-propionamide]
Second: CC(C)CC(C(=O)Nc1ccn(C[C@@H](O)CO)n1)n1ncc(Oc2cccc3ccccc23)cc1=O (stereo partly drawn) [Example 109, 4-Methyl-2-[4-(naphthalen-1-yloxy)-6-oxo-6H-pyridazin-1-yl]-pentanoic acid [1-((R)-2,3-dihydroxy-propyl)-1H-pyrazol-3-yl]-amide]
The “SC1.5 average (concentration of activator that produced a 50% increase in the activity of GK)” value of the first is 1.8-fold higher: 0.521 µM for the first, 0.293 µM for the second.

First: CC(C)CC(C(=O)Nc1ccn(C[C@@H](O)CO)n1)n1ncc(Oc2cccc3c2CCCC3)cc1=O (stereo partly drawn) [Example 110, 4-Methyl-2-[6-oxo-4-(5,6,7,8-tetrahydro-naphthalen-1-yloxy)-6H-pyridazin-1-yl]-pentanoic acid [1-((R)-2,3-dihydroxy-propyl)-1H-pyrazol-3-yl]-amide]
Second: CC(C)CC(C(=O)Nc1ccn(C[C@@H](O)CO)n1)n1ncc(Oc2cccc3[nH]ccc23)cc1=O (stereo partly drawn) [Example 111, 2-[4-(1H-Indol-4-yloxy)-6-oxo-6H-pyridazin-1-yl]-4-methyl-pentanoic acid [1-((R)-2,3-dihydroxy-propyl)-1H-pyrazol-3-yl]-amide]
The “SC1.5 average (concentration of activator that produced a 50% increase in the activity of GK)” value of the first is 1.9-fold lower: 0.29 µM for the first, 0.554 µM for the second.

`CC(C)CC(C(=O)Nc1ccn(C[C@@H](O)CO)n1)n1ncc(-n2ccc3c(O)cccc32)cc1=O` (stereo partly drawn) [Example 112, 2-[4-(4-Hydroxy-indol-1-yl)-6-oxo-6H-pyridazin-1-yl]-4-methyl-pentanoic acid [1-((R)-2,3-dihydroxy-propyl)-1H-pyrazol-3-yl]-amide] and `CC(C)CC(C(=O)Nc1ccn(C)n1)n1ncc(Oc2cccc3c2ccn3C[C@@H](O)CO)cc1=O` (stereo partly drawn) [Example 113, 2-{4-[1-((R)-2,3-Dihydroxy-propyl)-1H-indol-4-yloxy]-6-oxo-6H-pyridazin-1-yl}-4-methyl-pentanoic acid (1-methyl-1H-pyrazol-3-yl)-amide] are within 1.5-fold of each other in “SC1.5 average (concentration of activator that produced a 50% increase in the activity of GK)” value: 2.606 µM for the first, 2.308 µM for the second.

`O=C(Nc1ccn(C[C@@H](O)CO)n1)C(CC1CCCC1)n1ncc(OCCc2ccccc2Cl)cc1=O` (stereo partly drawn) [Example 114, 2-{4-[2-(2-Chloro-phenyl)-ethoxy]-6-oxo-6H-pyridazin-1-yl}-3-cyclopentyl-N-[1-((R)-2,3-dihydroxy-propyl)-1H-pyrazol-3-yl]-propionamide] and `CC(C)(O)Cn1ccc(NC(=O)C(CC2CCCC2)n2ncc([S+]([O-])c3ccccc3)cc2=O)n1` (centres unmarked) [Example 124, 2-(4-Benzenesulfinyl-6-oxo-6H-pyridazin-1-yl)-3-cyclopentyl-N-[1-(2-hydroxy-2-methyl-propyl)-1H-pyrazol-3-yl]-propionamide] are within 1.5-fold of each other in “SC1.5 average (concentration of activator that produced a 50% increase in the activity of GK)” value: 1.656 µM for the first, 2.461 µM for the second.

First: COc1ccc(Oc2cnn(C(CC3CCCCC3)C(=O)Nc3ccn(CC(C)(C)O)n3)c(=O)c2)c(F)c1 (centres unmarked) [Example 116, 3-Cyclohexyl-2-[4-(2-fluoro-4-methoxy-phenoxy)-6-oxo-6H-pyridazin-1-yl]-N-[1-(2-hydroxy-2-methyl-propyl)-1H-pyrazol-3-yl]-propionamide]
Second: COc1ccc(Oc2cnn(C(CC3CCCCC3)C(=O)Nc3ccn(CC(C)(C)O)n3)c(=O)c2)c(Cl)c1 (centres unmarked) [Example 118, 2-[4-(2-Chloro-4-methoxy-phenoxy)-6-oxo-6H-pyridazin-1-yl]-3-cyclohexyl-N-[1-(2-hydroxy-2-methyl-propyl)-1H-pyrazol-3-yl]-propionamide]
The “SC1.5 average (concentration of activator that produced a 50% increase in the activity of GK)” value of the first is 2.3-fold higher: 0.543 µM for the first, 0.237 µM for the second.

Going from `Cc1ccc(Oc2cnn(C(CC3CCCCC3)C(=O)Nc3ccn(CC(C)(C)O)n3)c(=O)c2)c(C)c1` (centres unmarked) [Example 117, 3-Cyclohexyl-2-[4-(2,4-dimethyl-phenoxy)-6-oxo-6H-pyridazin-1-yl]-N-[1-(2-hydroxy-2-methyl-propyl)-1H-pyrazol-3-yl]-propionamide] to `CC(C)(O)Cn1ccc(NC(=O)C(CC2CCCCC2)n2ncc(Oc3ccc(OC(F)(F)F)cc3Cl)cc2=O)n1` (centres unmarked) [Example 119, 2-[4-(2-Chloro-4-trifluoromethoxy-phenoxy)-6-oxo-6H-pyridazin-1-yl]-3-cyclohexyl-N-[1-(2-hydroxy-2-methyl-propyl)-1H-pyrazol-3-yl]-propionamide], the “SC1.5 average (concentration of activator that produced a 50% increase in the activity of GK)” value rises from 0.352 µM to 0.811 µM (2.3-fold).

Compared with `CCOc1ccc(F)c(Oc2cnn(C(CC(C)C)C(=O)Nc3ccn(C[C@@H](O)CO)n3)c(=O)c2)c1F` (stereo partly drawn) [Example 120, 2-[4-(3-ethoxy-2,6-difluoro-phenoxy)-6-oxo-6H-pyridazin-1-yl]-4-methyl-pentanoic acid [1-((R)-2,3-dihydroxy-propyl)-1H-pyrazol-3-yl]-amide], `CC(C)(O)Cn1ccc(NC(=O)C(CC2CCCC2)n2ncc(Sc3ccccc3)cc2=O)n1` (centres unmarked) [Example 123, 3-Cyclopentyl-N-[1-(2-hydroxy-2-methyl-propyl)-1H-pyrazol-3-yl]-2-(6-oxo-4-phenylsulfanyl-6H-pyridazin-1-yl)-propionamide] is 2.5-fold higher in “SC1.5 average (concentration of activator that produced a 50% increase in the activity of GK)” value: 0.18 µM for the first, 0.441 µM for the second.

`CC(C)(O)Cn1ccc(NC(=O)C(CC2CCCC2)n2ncc(S(=O)(=O)c3ccccc3)cc2=O)n1` (centres unmarked) [Example 125, 2-(4-Benzenesulfonyl-6-oxo-6H-pyridazin-1-yl)-3-cyclopentyl-N-[1-(2-hydroxy-2-methyl-propyl)-1H-pyrazol-3-yl]-propionamide] was tested, and the “SC1.5 average (concentration of activator that produced a 50% increase in the activity of GK)” value was 2.611 µM.

For `CC(C)CC(C(=O)Nc1ccn(C[C@@H](O)CO)n1)n1ncc(Nc2ccccc2Cl)cc1=O` (stereo partly drawn) [Example 122, 2-[4-(2-Chloro-phenylamino)-6-oxo-6H-pyridazin-1-yl]-4-methyl-pentanoic acid [1-((R)-2,3-dihydroxy-propyl)-1H-pyrazol-3-yl]-amide], the “SC1.5 average (concentration of activator that produced a 50% increase in the activity of GK)” value was > 30 µM.
